Data as given in patent US11352396B2, “Antimicrobial peptides and methods of using same” (Zoetis Services LLC, priority 2017, dated 2022).
Values after ≈ are worked out from the molar mass of the structure shown. Residues, ends and D or L forms follow the SMILES beside them.

Tests used:
[1] = tested on: MRSP (Methicillin-Resistant Staphylococcus pseudintermedius); assay: MIC against selected strains of MRSP; type: cell-based; design: key to MIC MRSP 88493 / MIC MRSP 72035 / MIC MRSP 81926: MIC in μM; key to MIC MRSP 71994 / MIC MRSP 79882 / MIC MRSP 80729 / MIC MRSP 86002: MIC in μM (first well with no visible growth); key to MIC MRSP 72192 / MIC MRSP 76923 / MR 71994 / Mr 88493 / MR 72035 / MR 72192 / MR 76923 / MR 79882 / MR 80279 / MR 81926 / MR 86002 / MR 87665: MIC in μM (visual, first well with no growth); MIC MRSP 87655: unit not given beside the values; settings: for MIC MRSP 71994: strain 71994, Table 4; for MIC MRSP 72035: strain 72035, Table 4; for MIC MRSP 72192: strain 72192, Table 4; for MIC MRSP 76923: strain 76923, Table 4; for MIC MRSP 79882: strain 79882, Table 4; for MIC MRSP 80729: strain 80729, Table 4; for MIC MRSP 81926: strain 81926, Table 4; for MIC MRSP 86002: strain 86002, Table 4; for MIC MRSP 87655: strain 87655, Table 4; for MIC MRSP 88493: strain 88493, Table 4
Method: (§1) Peptides according to SEQ ID NOs as listed in Table 1 were prepared by a commercial manufacturer (CS Bio, Menlo Park, Calif.) using solid phase synthesis. Antimicrobial activity was assessed by determining the Minimal Inhibitory Concentration (MIC) against S. aureus and E. coli. Briefly, Microbroth MICs were performed using CLSI methodology (VET01-S2). For S. aureus and E. coli ATCC strains, TSA with 5% lysed horse blood agar was used for overnight culturing at 37° C. ambient air. A 0.5 mM stock for each peptide was made with cell culture water, 0.01% acetic acid and serially diluted and spotted (10 μL) in a 96-well plate for in assay dose titration concentration of 50 μM to 0.05 μM. 0.5 McFarland Standard of each strain was diluted 1:250 in Mueller-Hinton Broth (MHB). 90 μL of culture suspension was then added upon drug in the 96-well plate for overnight incubation for 18-20 hours. The MIC was determined visually at the first well of no visible growth at the corresponding concentration.
(§2) Antimicrobial activity of the peptides listed in Table 2 against different strains of MSSP (Methicillin-Susceptible Staphylococcus pseudintermedius) and MRSP (Methicillin-Resistant Staphylococcus pseudintermedius) was further assessed. The results are in Tables 3 and 4, respectively.

[2] = tested on: Canine-derived epithelial keratinocyte (CPEK) cells; type: cell-based
Method: Safety of the peptides listed in table 2 was determining by measuring cell viability. Canine-derived epithelial keratinocyte (CPEK) cells were propagated to determine cell viability in the presence of peptides. Cells were grown from a frozen stock in CnT-09-5 (with supplements) pre-warmed media in a T75 flask and incubated overnight at 37° C., 5% CO2. Cells were washed with phosphate buffer and replenished with pre-warmed CnT-05-9 media and repeated for several days until cells reached a density of 6.6×10^4 cells/mL. Cells were then transferred to a 384 well plate, allowed to settle and dosed with peptides and melittin control peptide (50 μM to 0.05 μM) and incubated overnight at 37° C., 5% CO2. 0.1% TritonX100 as (HPE) and phosphate buffer alone as (ZPE) were added to the plates to calculate percent effect once the assay was terminated with 10 μL CELLTITER-GLO® assay reagents for a luminescent readout.

[3] = tested on: MSSP (Methicillin-Susceptible Staphylococcus pseudintermedius); assay: MIC against selected strains of MSSP; type: cell-based; design: key to MIC MSSP 84658 / MIC MSSP 86000 / MIC MSSP 71990 / MIC MSSP 72036 / MIC MSSP 78032: MIC in μM; key to MIC MSSP 86001 / MIC MSSP 72191 / MIC MSSP 76986 / MIC MSSP 77378: MIC in μM (first well with no visible growth); MIC MSSP 49051 / MIC MSSP 81923 / MIC MSSP 84250 / Effect on MSSP 86000 / Effect on MSSP 72036 / Effect on MSSP 78032: unit not given beside the values; Effect on MSSP 71990 / Effect on MSSP 86001 / Effect on MSSP 72191 / Effect on MSSP 76986 / Effect on MSSP 77378 / Effect on MSSP 81923 / Effect on MSSP 84250 / Effect on MSSP 84658: unit: µM; settings: for MIC MSSP 49051: strain 49051, Table 3; for MIC MSSP 71990: strain 71990, Table 3; for MIC MSSP 72036: strain 72036, Table 3; for MIC MSSP 72191: strain 72191, Table 3; for MIC MSSP 76986: strain 76986, Table 3; for MIC MSSP 77378: strain 77378, Table 3; for MIC MSSP 78032: strain 78032, Table 3; for MIC MSSP 81923: strain 81923, Table 3; for MIC MSSP 84250: strain 84250, Table 3; for MIC MSSP 84658: strain 84658, Table 3; for MIC MSSP 86000: strain 86000, Table 3; for MIC MSSP 86001: strain 86001, Table 3
Method: as §1, §2

cRBC = type: cell-based, canine
Method: SEQ ID NO: 1 was selected for further research. Toxicity of SEQ ID NO: 1 to eukaryotic blood cells was compared to that of tachyplesin (SEQ ID NO: 13). A standard, well referenced red blood cell hemolysis assay was employed against multiple species to test the lysis potential of the peptides. Red blood cells (RBCs) were prepared and isolated by several centrifuge and wash steps to remove the plasma fraction. A dose titration (50 μM to 0.05 μM) of test peptides and control peptide melittin were spotted from 50 mM stocks in a 384 well plate. Prepared RBCs were incubated with peptide for one hour at 37° C. Percent hemolysis was measured by optical density at 405 nm and utilizing 1% TritonX100 as hundred percent effect (HPE) and phosphate buffer alone as zero percent effect (ZPE).

S. aureus ATCC 29213 = type: cell-based; design: key to SA 29213: MIC in μM (lowest conc. with no visible growth)
Method: as §1

E. coli ATCC 25922 = type: cell-based
Method: as §1

## 11 (KWCFRVCYRGICYRRCND; Artificial Antimicrobial peptide) [compound 11]
[1]
  MIC MRSP 71994: 1.6
  MIC MRSP 72035: 1.6
  MIC MRSP 72192: 0.8
  MIC MRSP 76923: 0.8
  MIC MRSP 79882: 0.8
  MIC MRSP 80729: 0.8
  MIC MRSP 81926: 0.8
  MIC MRSP 86002: 0.8
  MIC MRSP 87655: 0.8
  MIC MRSP 88493: 1.6
[2]
  CPEK (50 μM): 22.0
[3]
  MIC MSSP 49051: 0.8
  MIC MSSP 71990: 1.6
  MIC MSSP 72036: 0.8
  MIC MSSP 72191: 0.8
  MIC MSSP 76986: 0.8
  MIC MSSP 77378: 0.4
  MIC MSSP 78032: 0.8
  MIC MSSP 81923: 1.6
  MIC MSSP 84250: 0.8
  MIC MSSP 84658: 0.8
  MIC MSSP 86000: 0.4
  MIC MSSP 86001: 0.8
cRBC
  cRBC (50 μM): 57.8

## 28 (PKWCFRVCYRGICYRRCR; Artificial Antimicrobial peptide) [compound 28]
[1]; MRSP strain 71994, Table 6
  MR 71994: 1.6
[1]; MRSP strain 72035, Table 6
  MR 72035: 3.1
[1]; MRSP strain 72192, Table 6
  MR 72192: 3.1
[1]; MRSP strain 76923, Table 6
  MR 76923: 1.6
[1]; MRSP strain 79882, Table 6
  MR 79882: 0.8
[1]; MRSP strain 80279, Table 6
  MR 80279: 1.6
[1]; MRSP strain 81926, Table 6
  MR 81926: 1.6
[1]; MRSP strain 86002, Table 6
  MR 86002: 1.6
[1]; MRSP strain 87665, Table 6
  MR 87665: 1.6
[1]; MRSP strain 88493, Table 6
  Mr 88493: 1.6
[2]
  CPEK (50 μM): 19.4
S. aureus ATCC 29213; S. aureus 29213, Table 6
  SA 29213: 6.2
E. coli ATCC 25922; E. coli 25922, Table 6
  EC 25922: 0.8 µM
[3]; S. pseudintermedius 49051, Table 6
  SP 49051: 1.6
[3]; strain 71990, Table 5
  Effect on MSSP 71990: 1.6
[3]; strain 72036, Table 5
  Effect on MSSP 72036: 1.6
[3]; strain 72191, Table 5
  Effect on MSSP 72191: 1.6
[3]; strain 76986, Table 5
  Effect on MSSP 76986: 0.8
[3]; strain 77378, Table 5
  Effect on MSSP 77378: 1.6
[3]; strain 78032, Table 5
  Effect on MSSP 78032: 1.6
[3]; strain 81923, Table 5
  Effect on MSSP 81923: 1.6
[3]; strain 84250, Table 5
  Effect on MSSP 84250: 1.6
[3]; strain 84658, Table 5
  Effect on MSSP 84658: 1.6
[3]; strain 86000, Table 5
  Effect on MSSP 86000: 1.6
[3]; strain 86001, Table 5
  Effect on MSSP 86001: 1.6
cRBC
  cRBC (50 μM): 94.4

## 96 (KWCFRVCYGRICYRRCRD; Artificial Antimicrobial peptide) [compound 96]
[1]
  MIC MRSP 71994: 1.6
  MIC MRSP 72035: 1.6
  MIC MRSP 72192: 1.6
  MIC MRSP 76923: 1.6
  MIC MRSP 79882: 1.6
  MIC MRSP 80729: 1.6
  MIC MRSP 81926: 1.6
  MIC MRSP 86002: 1.6
  MIC MRSP 87655: 1.6
  MIC MRSP 88493: 1.6
[2]
  CPEK (50 μM): 51.9
[3]
  MIC MSSP 49051: 1.6
  MIC MSSP 71990: 1.6
  MIC MSSP 72036: 1.6
  MIC MSSP 72191: 1.6
  MIC MSSP 76986: 1.6
  MIC MSSP 77378: 0.8
  MIC MSSP 78032: 1.6
  MIC MSSP 81923: 1.6
  MIC MSSP 84250: 1.6
  MIC MSSP 84658: 1.6
  MIC MSSP 86000: 1.6
  MIC MSSP 86001: 1.6
cRBC
  cRBC (50 μM): 101.4

## CC(C)[C@H](NC(=O)[C@H](CS)NC(=O)[C@H](Cc1ccccc1)NC(=O)CNC(=O)[C@H](CC(N)=O)NC(=O)[C@H](CCCCN)NC(=O)[C@H](CS)NC(=O)[C@H](CCCCN)NC(=O)[C@H](CS)NC(=O)CNC(=O)[C@H](CCCCN)NC(=O)[C@@H](N)CCCNC(=N)N)C(=O)N[C@@H](CS)C(=O)N[C@@H](CCCNC(=N)N)C(N)=O [SEQ ID NO: 65, RKGCKCKNGFCVCR-NH2] (H-RKGCKCKNGFCVCR-NH2; N-terminus assumed)
S. aureus ATCC 29213
  MIC S. aureus ATCC 29213: 50 µM (≈ 80.1 µg/mL)
E. coli ATCC 25922
  MIC E. coli ATCC 25922: 6.25 µM (≈ 10 µg/mL)

## CC(C)C[C@H](NC(=O)[C@H](CCCNC(=N)N)NC(=O)CNC(=O)CNC(=O)[C@@H](N)CCCNC(=N)N)C(=O)N[C@@H](CS)C(=O)N[C@@H](Cc1ccc(O)cc1)C(=O)N[C@@H](CS)C(=O)N[C@@H](CCCNC(=N)N)C(=O)N[C@@H](CCCNC(=N)N)C(=O)N[C@@H](CCCNC(=N)N)C(=O)N[C@@H](Cc1ccccc1)C(=O)N[C@@H](CS)C(=O)N[C@H](C(=O)N[C@@H](CS)C(=O)N[C@H](C(=O)NCC(=O)N[C@@H](CCCNC(=N)N)C(=O)O)C(C)C)C(C)C [SEQ ID NO: 92, RGGRLCYCRRRFCVCVGR] (H-RGGRLCYCRRRFCVCVGR-OH; N-terminus and C-terminus assumed)
S. aureus ATCC 29213
  MIC S. aureus ATCC 29213: 3.1 µM (≈ 6.7 µg/mL)
E. coli ATCC 25922
  MIC E. coli ATCC 25922: 3.1 µM (≈ 6.7 µg/mL)
